Measured values published in patent US6531600B1, “Treatment and compounds” (Beecham Group p.l.c., priority 1989, dated 2003).

Experiments:
[1] = tested on: Sephadex induced eosinophilia; assay: Sephadex induced blood eosinophilia in the rat; type: in vivo; details: n = 12 or more
Procedure: b) Induction of blood eosinophilia and the effects of drugs.
Male Charles River Sprague Dawley rats weight between 250 to 300 g were used.
The method used was a modification of that described by Laycock et al (Int. Arch. Appl. Immunol, (1986). 81, 363).
Sephadex G200, particle size 40 to 120 micron, was suspended in isotonic saline at 0.5 mg/ml, and stored for 48 h at 4° C. 1 ml of the suspension was given intravenously to rats on days 0,2 and 5. A control group received saline. The test compound was given before the Sephadex on each occasion, with a contact time expected to give maximum activity at the time of the Sephadex administration. Blood was taken from the tail vein of the rats on day 7 for the determination of total and differential leucocyte counts.
A control group of at least 6 animals was included each time a compound was evaluated. The control group received Sephadex and the vehicle without test compound. The results in the drug treated animals were compared with the control group. Alternatively, if the mean for the control group for any experiment was not statistically different from the mean of the sum of all of the controls groups, then the treated animal results for that experiment were compared with the mean of the sum of all the control groups.
Total and differential leucocyte counts
20 μl samples of blood, taken from the tail vein of the rats, were added to 10 ml of Isoton II and, within 30 min, Zaponin (3 drops) was added, to lyse the erythrocytes. Five minutes later the total cell count was determined using a Coulter Counter Model DN. Differential leucocyte counts were carried out by fixing and staining a blood smear on a microscopic slide with May-Grunwald and Giemsa stains. A minimum of 400 cells were counted on each slide.
Probability values were calculated using the Student's t test.
The effect of the test compound upon Sephadex induced eosinophilia in the rat is set out in Table 3. The test compound was given orally 30 minutes before each injection of Sephadex.

[2] = target: c-AMP phosphodiesterase (erythrocytes); assay: Inhibition of cyclic AMP phosphodiesterase (erythrocyte extract, radiochemical procedure); type: biochemical; details: phosphodiesterase extracted from erythrocytes
Procedure: a) Inhibition of Cyclic AMP Phosphodiesterase
The phosphodiesterase was extracted by mixing the erythrocytes with 4 volumes of 7 mM phosphate buffer, pH7.4, followed by sonification (3×10 sec; 100 W) and then centrifuging for 30 min at 4200×g.
All supernatants were diluted in the extraction medium and assayed for phosphodiesterase activity within 6 hours of preparation, using the radiochemical procedure described in the above mentioned reference.

[3] = 25.0 mg/kg orally 30 mins before each Sephadex i.v. injection

Row | Molecule | Ki [2] [µM] | melting point | other results
1 | CCCCn1c(=O)c2[nH]c([N+](=O)[O-])nc2n(CCCC)c1=O [Example 1, 1,3-Di-n-butyl-8-nitro xanthine] | 17 | – | % of Control Mean ± SEM (blood eosinophilia) [1, 3]: 109 ± 6 % of Control
2 | Nc1nc2c([nH]1)c(=O)n(CC1CCC1)c(=O)n2CC1CCC1 [Example 10] | 0.53 | 124 °C (dec.) | % of Control Mean ± SEM (blood eosinophilia) ([1]; 5.0 mg/kg orally 30 mins before each Sephadex i.v. injection): 47 ± 4 % of Control
3 | O=c1c2[nH]c([N+](=O)[O-])nc2n(CC2CCCC2)c(=O)n1CC1CCCC1 [Example 4] | 4.8 | 148 to 150 °C | –
4 | O=c1c2[nH]c([N+](=O)[O-])nc2n(CC2CCC2)c(=O)n1CC1CCC1 [Example 3] | 6.1 | 220 °C | –
5 | 1,3-Di-cyclopropylmethyl-8-pyrrolidinyl xanthine [Example 22] | 29.7 | – | –
6 | CCCCn1c(=O)c2[nH]c(N)nc2n(CCCC)c1=O.Cl [Example 7, 1,3-Di-n-butyl-8-amino xanthine hydrochloride] | 1.3 | – | % of Control Mean ± SEM (blood eosinophilia) [1, 3]: 91 ± 6 % of Control
7 | Nc1nc2c([nH]1)c(=O)n(CC1CC1)c(=O)n2CC1CC1 [Example 9, 1,3-Di-cyclopropylmethyl-8-amino xanthine] | 1.6 | – | % of Control Mean ± SEM (blood eosinophilia) ([1]; 0.2 mg/kg orally 30 mins before each Sephadex i.v. injection): 61 ± 8 % of Control; % of Control Mean ± SEM (blood eosinophilia) ([1]; 2.0 mg/kg orally 30 mins before each Sephadex i.v. injection): 48 ± 7 % of Control
8 | 1,3-Di-cyclopropylmethyl-8-piperidinyl xanthine [Example 23] | 55.9 | – | –
9 | O=c1c2[nH]c(Cl)nc2n(C2CCCCC2)c(=O)n1C1CCCCC1 [Example 18, 1,3-Di-cyclohexyl-8-chloro xanthine] | 23 | – | –
10 | CCCCn1c(=O)c2[nH]c(N3CCCCC3)nc2n(CCCC)c1=O [Example 19, 1,3-Di-n-butyl-8-piperidino xanthine] | < 100 | – | –
11 | O=c1c2[nH]c(N3CCOCC3)nc2n(CC2CC2)c(=O)n1CC1CC1 [Example 20, 1,3-Di-cyclopropylmethyl-8-morpholino xanthine] | 11.5 | – | –
12 | O=c1c2[nH]c([N+](=O)[O-])nc2n(CC2CC2)c(=O)n1CC1CC1 [Example 2, 1,3-Di-cyclopropylmethyl-8-nitro xanthine] | 15.9 | – | –
13 | O=c1c2[nH]c(Cl)nc2n(CC2CC2)c(=O)n1CC1CC1 [Example 17, 1,3-Di-cyclopropylmethyl-8-chloro xanthine] | 15.1 | – | –
14 | CCCCn1c(=O)c2[nH]c(N)nc2n(CCCC)c1=O [Example 8, 1,3-Di-n-butyl-8-amino xanthine] | – | 89 °C | –
15 | Nc1nc2c([nH]1)c(=O)n(CC1CCCC1)c(=O)n2CC1CCCC1 [Example 11] | 0.57 | 300 °C | –
16 | O=c1c2[nH]c([N+](=O)[O-])nc2n(CC2CCCCC2)c(=O)n1CC1CCCCC1 [Example 5] | 5.4 | 140 °C | –
17 | O=c1c2[nH]c(Br)nc2n(CC2CCCCC2)c(=O)n1CC1CCCCC1 [Example 25, 1,3-Di-cyclohexylmethyl-8-bromo xanthine] | 7.9 | – | –
18 | Nc1nc2c([nH]1)c(=O)n(C1CC1)c(=O)n2C1CC1 [Example 13, 1,3-Di-cyclopropyl-8-amino xanthine] | 14 | – | –
